The text below walks through data of patent US8530679B2, “Delta 9—tetrahydrocannabinol processing” (Resolution Chemicals Limited, priority 2007, dated 2013).

The conditions of series [1]: cited from earlier work; for psychomimetic activity: constituents of cannabis.
The conditions of series [2]: susceptible to rearrangement and oxidation; cited from earlier work.
The nature of series [3]: stability of Δ9-THC on handling and storage. Particulars: solution prepared below room temperature, typically below 0° C., in some instances −40° C. and even −78° C.

Molecules are shown by their SMILES.

On to `CCCCCc1cc(O)c2c(c1)OC(C)(C)[C@@H]1CCC(C)=C[C@@H]21` [Δ9-THC, Δ9-tetrahydrocannabinol], for which the “psychomimetic activity relative to Δ8-THC” value in series [1] (greater than Δ8-THC) is on record as 20 times. Besides, the “stability at room temperature” value in series [2] is on record as “relatively unstable”. Besides, in series [3], the “stability / degradation in solution of low boiling point solvent” value is given as “no significant degradation”.

Turning to `CCCCCc1cc2c(c(O)c1C(=O)O)[C@@H]1C=C(C)CC[C@H]1C(C)(C)O2` [THCA-A, Δ9-THC carboxylic acid], the psychomimetic activity result in series [1] was “psychomimetically inactive”.

For `C=C(C)[C@@H]1CCC(C)=C[C@H]1c1c(O)cc(CCCCC)cc1O` [Cannabidiol], in series [1], the psychomimetic activity result was “little activity”.
